Where a name gives a salt, the structure may show the parent alone.
Target: T1, human ASK1 (Homo sapiens, UniProt Q99683)
T1 construct: a 2.2 kb DNA fragment containing an ASK1 gene was recovered from the gel; made in house; host or cells: Sf-21 insect cells, recombinant baculovirus (pFASTBAC1, Bac-to-Bac)
T1 sequence (Q99683 649-1374 limits assumed): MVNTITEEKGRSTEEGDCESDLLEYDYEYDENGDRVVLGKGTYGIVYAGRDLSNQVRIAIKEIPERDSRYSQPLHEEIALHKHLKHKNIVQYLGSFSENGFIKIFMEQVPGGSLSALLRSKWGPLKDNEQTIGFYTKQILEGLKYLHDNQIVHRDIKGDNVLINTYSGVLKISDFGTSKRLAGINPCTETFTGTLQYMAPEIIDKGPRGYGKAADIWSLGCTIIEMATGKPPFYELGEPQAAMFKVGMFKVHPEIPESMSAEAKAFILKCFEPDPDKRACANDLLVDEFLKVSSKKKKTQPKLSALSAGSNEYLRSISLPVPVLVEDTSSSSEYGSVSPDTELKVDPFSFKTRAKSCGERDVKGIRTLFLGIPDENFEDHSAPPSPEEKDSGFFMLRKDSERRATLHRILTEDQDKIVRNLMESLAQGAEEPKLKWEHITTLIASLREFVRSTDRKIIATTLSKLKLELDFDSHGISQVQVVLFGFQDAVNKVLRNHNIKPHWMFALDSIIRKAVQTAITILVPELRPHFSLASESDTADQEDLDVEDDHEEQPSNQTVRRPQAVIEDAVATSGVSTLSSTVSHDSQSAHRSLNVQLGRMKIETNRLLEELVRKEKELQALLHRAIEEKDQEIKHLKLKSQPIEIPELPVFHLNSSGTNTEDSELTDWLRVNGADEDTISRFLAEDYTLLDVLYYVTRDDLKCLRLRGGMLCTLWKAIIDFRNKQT
Assay: Scintillation assay measuring inhibition of ASK1 phosphorylation of myelin basic protein
Type: biochemical
Settings: active ASK1 protein 30 ng, myelin basic protein 1 μg, [γ-32P]ATP, room temperature 30 min; values given as ranges; read-out: Enzyme Activity IC50
Experimental: Cloning of cDNA encoding human ASK1 was conducted by PCR using primers, 5′-[…] AGAGAAGGGGA-3′ (SEQ ID NO: 1) and 5′-[…]-3′ (SEQ ID NO: 2), from human heart cDNA library (Becton, Dickinson and Company). The PCR product was subjected to agarose gel (1%) electrophoresis, a 2.2 kb DNA fragment containing an ASK1 gene was recovered from the gel, and then digested with restriction enzymes, NotI and SalI, and inserted into a plasmid pFASTBAC1 (Invitrogen) to prepare a plasmid pFB-ASK1. The insert was verified by sequencing. Recombinant baculovirus was prepared according to the procedure of the Bac-to-Bac baculovirus expression system (Invitrogen).
Sf-21 cells were seeded to achieve 1×10^6 cells/mL in 100 mL of Sf-900 II SFM medium (Invitrogen) which contains 10% fetal calf serum and then cultured at 27° C. for 24 hrs. To express ASK1 in cells, 0.15 mL of the recombinant baculovirus virus stock was added to cells, and the then cultured for 60 hrs. The cells were separated from the culture solution by centrifugation at 3000 rpm for 10 min and washed once with PBS. The cells were suspended in 10 mL of lysis buffer (25 mM HEPES (pH 7.5), 1% Triton X, 130 mM NaCl, 1 mM EDTA, 1 mM DTT, 25 mM β-glycerophosphate, Protease inhibitor complete (Roche), 1 mM sodium orthovanadate) and ruptured by four times of treatment with a homogenizer (POLYTRON) at 20000 rpm for 30 seconds. Active ASK1 protein was purified from a supernatant obtained by centrifugal separation at 40000 rpm for 45 min using anti-FLAG M2 Affinity Gel (Sigma).
The test compounds (2.5 μl) dissolved in DMSO were added to wells containing 37.5 μl of the reaction solution (25 mM HEPES (pH 7.5), 10 mM magnesium acetate, 1 mM DTT) including 30 ng of active ASK1 protein and 1 μg of myelin basic protein (Wako), and incubated at room temperature for 5 min. To start the reaction, 10 μL of ATP solution (2.5 μM ATP, 0.1 μCi [γ-^32P]ATP) was added to wells. After incubating at room temperature for 30 min, the reaction was terminated by adding 50 μl of 20% TCA solution. The reaction solution was incubated at 4° C. for 30 min and an acid-insoluble fraction was transferred onto a GF/C filter (Packard) with Cell Harvester (Packard), and washed with 250 mM phosphoric acid. After drying at 45° C. for 60 min., 40 μL of Microscint 0 (Packard) was added and the radioactivity was measured with TopCount (Packard). The concentrations (IC50 value) of the test compounds necessary for 50% inhibition of kinase activity were calculated by PRISM 3.0 (Graphpad Software).
The enzyme activities of selected compounds of the present invention against ASK1 were determined using the assay disclosed in Example A and B. The resulted pIC50 values are reported in Table 1.

Row | IC50 [nM] | Compound
1 | < 100 | CC(C)(C)c1ccc(C(=O)Nc2cc(-c3ccc(C(N)=O)cc3)n3nccc3n2)cc1 [Compound 42, 4-tert-butyl-N-(7-(4-carbamoylphenyl)pyrazolo[1,5-a]pyrimidin-5-yl)benzamide]
2 | < 100 | CC(C)(O)c1ccc(C(=O)Nc2cc(N3CCc4ccccc4C3)n3nccc3n2)cc1 [Compound 64, N-(7-(3,4-dihydroisoquinolin-2(1H)-yl)pyrazolo[1,5-a]pyrimidin-5-yl)-4-(2-hydroxypropan-2-yl)benzamide]
3 | < 100 | CC(C)(C)c1ccc(C(=O)Nc2cc(N3CCOCC3)n3nccc3n2)cc1 [Compound 65, 4-tert-butyl-N-(7-morpholinopyrazolo[1,5-a]pyrimidin-5-yl)benzamide, trifluoroacetate salt]
4 | < 100 | CC(C)(C)c1ccc(C(=O)Nc2cc(N3CCc4ccccc4C3)n3nccc3n2)cc1 [Compound 66, 4-tert-butyl-N-(7-(3,4-dihydroisoquinolin-2(1H)-yl)pyrazolo[1,5-a]pyrimidin-5-yl)benzamide]
5 | 100 to 1000 | CC(C)(O)c1ccc(C(=O)Nc2cc(N3CCC[C@H]3CO)n3nccc3n2)cc1 [Compound 67, (S)—N-(7-(2-(hydroxymethyl)pyrrolidin-1-yl)pyrazolo[1,5-a]pyrimidin-5-yl)-4-(2-hydroxypropan-2-yl)benzamide]
6 | 100 to 1000 | CC(C)(O)c1ccc(C(=O)Nc2cc(N3CCC[C@@H]3CO)n3nccc3n2)cc1 [Compound 68, (R)—N-(7-(2-(hydroxymethyl)pyrrolidin-1-yl)pyrazolo[1,5-a]pyrimidin-5-yl)-4-(2-hydroxypropan-2-yl)benzamide]
7 | 100 to 1000 | CC(C)(O)c1ccc(C(=O)Nc2cc(N3CC[C@@H](O)C3)n3nccc3n2)cc1 [Compound 69, (R)-4-(2-hydroxypropan-2-yl)-N-(7-(3-hydroxypyrrolidin-1-yl)pyrazolo[1,5-a]pyrimidin-5-yl)benzamide]
8 | 100 to 1000 | CC(C)(O)c1ccc(C(=O)Nc2cc(N3CC[C@H](O)C3)n3nccc3n2)cc1 [Compound 70, (S)-4-(2-hydroxypropan-2-yl)-N-(7-(3-hydroxypyrrolidin-1-yl)pyrazolo[1,5-a]pyrimidin-5-yl)benzamide]
9 | < 100 | CC(C)(O)c1ccc(C(=O)Nc2cc(N3CCC(CCO)CC3)n3nccc3n2)cc1 [Compound 71, N-(7-(4-(2-hydroxyethyl)piperidin-1-yl)pyrazolo[1,5-a]pyrimidin-5-yl)-4-(2-hydroxypropan-2-yl)benzamide]
10 | < 100 | CC(C)(O)c1ccc(C(=O)Nc2cc(N3CCOCC3)n3nccc3n2)cc1 [Compound 72, 4-(2-hydroxypropan-2-yl)-N-(7-morpholinopyrazolo[1,5-a]pyrimidin-5-yl)benzamide]
11 | 100 to 1000 | CC(C)(O)c1ccc(C(=O)Nc2cc(N3CCC(O)CC3)n3nccc3n2)cc1 [Compound 73, N-(7-(4-hydroxypiperidin-1-yl)pyrazolo[1,5-a]pyrimidin-5-yl)-4-(2-hydroxypropan-2-yl)benzamide]
12 | 100 to 1000 | CC(C)(O)c1ccc(C(=O)Nc2cc(N3CCCCC3CCO)n3nccc3n2)cc1 (centres unmarked) [Compound 74, N-(7-(2-(2-hydroxyethyl)piperidin-1-yl)pyrazolo[1,5-a]pyrimidin-5-yl)-4-(2-hydroxypropan-2-yl)benzamide]

More lines, now with the values behind:

Row | Compound | IC50 [nM]
13 | COc1ccc(-c2cc(NC(=O)c3ccc(C(C)(C)C)cc3)nc3ccnn23)cn1 [Compound 13, 4-tert-Butyl-N-(7-(6-methoxypyridin-3-yl)pyrazolo[1,5-a]pyrimidin-5-yl)benzamide] | > 1000
14 | CC(=O)Nc1ccc(-c2cc(NC(=O)c3ccc(C(C)(C)C)cc3)nc3ccnn23)cn1 [Compound 14, N-(7-(6-Acetamidopyridin-3-yl)pyrazolo[1,5-a]pyrimidin-5-yl)-4-tert-butylbenzamide] | 100 to 1000
15 | COc1cccc(-c2cc(NC(=O)c3ccc(C(C)(C)C)cc3)nc3ccnn23)c1 [Compound 15, 4-tert-Butyl-N-(7-(3-methoxyphenyl)pyrazolo[1,5-a]pyrimidin-5-yl)benzamide] | < 100
16 | CC(C)(O)c1ccc(C(=O)Nc2cc(-c3ccccc3)n3nccc3n2)cc1 [Compound 16, 4-(2-Hydroxypropan-2-yl)-N-(7-phenylpyrazolo[1,5-a]pyrimidin-5-yl)benzamide] | < 100
17 | CC(C)(O)c1ccc(C(=O)Nc2cc(-c3cccc(NS(C)(=O)=O)c3)n3nccc3n2)cc1 [Compound 17, 4-(2-Hydroxypropan-2-yl)-N-(7-(3-(methylsulfonamido)phenyl)pyrazolo[1,5-a]pyrimidin-5-yl)benzamide] | 100 to 1000
18 | CC(C)(O)c1ccc(C(=O)Nc2cc(-c3ccoc3)n3nccc3n2)cc1 [Compound 18, N-(7-(Furan-3-yl)pyrazolo[1,5-a]pyrimidin-5-yl)-4-(2-hydroxypropan-2-yl)benzamide] | 100 to 1000
19 | COc1ccc(-c2cc(NC(=O)c3ccc(C(C)(C)O)cc3)nc3ccnn23)cc1 [Compound 19, 4-(2-Hydroxypropan-2-yl)-N-(7-(4-methoxyphenyl)pyrazolo[1,5-a]pyrimidin-5-yl)benzamide] | < 100
20 | Cc1ccc(-c2cc(NC(=O)c3ccc(C(C)(C)O)cc3)nc3ccnn23)cc1 [Compound 20, 4-(2-Hydroxypropan-2-yl)-N-(7-p-tolylpyrazolo[1,5-a]pyrimidin-5-yl)benzamide] | < 100
21 | CC(C)(O)c1ccc(C(=O)Nc2cc(-c3cccc(CC#N)c3)n3nccc3n2)cc1 [Compound 21, N-(7-(3-(cyanomethyl)phenyl)pyrazolo[1,5-a]pyrimidin-5-yl)-4-(2-hydroxypropan-2-yl)benzamide] | 100 to 1000
22 | CC(C)(O)c1ccc(C(=O)Nc2cc(-c3ccc(C(N)=O)cc3)n3nccc3n2)cc1 [Compound 22, N-(7-(4-carbamoylphenyl)pyrazolo[1,5-a]pyrimidin-5-yl)-4-(2-hydroxypropan-2-yl)benzamide] | 100 to 1000
23 | CSc1ccc(-c2cc(NC(=O)c3ccc(C(C)(C)O)cc3)nc3ccnn23)cc1 [Compound 23, 4-(2-hydroxypropan-2-yl)-N-(7-(4-(methylthio)phenyl)pyrazolo[1,5-a]pyrimidin-5-yl)benzamide] | < 100
24 | CC(C)(O)c1ccc(C(=O)Nc2cc(-c3ccc(C(F)(F)F)cc3)n3nccc3n2)cc1 [Compound 24, 4-(2-hydroxypropan-2-yl)-N-(7-(4-(trifluoromethyl)phenyl)pyrazolo[1,5-a]pyrimidin-5-yl)benzamide] | 100 to 1000
25 | Cc1cc2nc(NC(=O)c3ccc(C(C)(C)CO)cc3)cc(-c3ccccc3)n2n1 [Compound 29, 4-(1-hydroxy-2-methylpropan-2-yl)-N-(2-methyl-7-phenylpyrazolo[1,5-a]pyrimidin-5-yl)benzamide] | < 100
26 | CC(C)(C)c1ccc(C(=O)Nc2cc(-c3cccc(CC#N)c3)n3nccc3n2)cc1 [Compound 34, 4-tert-butyl-N-{7-[3-(cyanomethyl)phenyl]pyrazolo[1,5-a]pyrimidin-5-yl}benzamide] | < 100

Reference: patent publication US8921358B2, “Apoptosis signal-regulating kinase 1 inhibitors” (Takeda Pharmaceutical Company Limited, priority 2008, dated 2014)
